Results on six compounds are retold here after patent US20240123022A1, “A STABLE ANTI-ANGIOGENIC AND ANTI-INFLAMMATORY PHARMACEUTICAL FORMULATION AND PHARMACEUTICAL COMBINATION FOR TREATMENT AND PREVENTION OF PSORIASIS” (priority 2021, published 2024).

The subject of one experiment is HaCaT cells. Kind of experiment: TUNEL assay. It counts as cell-based, human. Conditions: 48 h. On the procedure:
Terminal deoxynucleotidyl transferase (TdT) dUTP Nick-End Labeling (TUNEL) assay has been designed to detect apoptotic cells that undergo extensive DNA degradation during the late stages of apoptosis. […] Cells were treated with test item (IS217 of 100 μg/ml-5000 μg/ml) and positive controls like curcumin (10 μM and 20 μM), anthralin (1 μM) and betullininc acid (10 μg/ml, 20 μg/ml, 50 μg/ml). After about 48 hours of treatment, cells were analysed for the apoptotic effect via TUNEL assay. Absorbance was measured using ELISA reader (Table 1).

The next experiment deals with IL-23 secretion. Briefly: Inhibition of IL-23 secretion in monocytes THP-1 (LPS and IFN-γ, ELISA). It counts as cell-based, human. As for the experimental part: The study was conducted to assess anti-inflammatory potential of test item, IS217 in human monocytic cell line (THP-1) by assessing percentage inhibition of IL-23 in monocytes by using ELISA method.
Curcumin was taken as positive control for in-house validation. For determining inhibitory activity against IL-23 secretion, human monocytic cell line (THP-1) was treated with concentration range of 10-5000 μg/ml with LPS (1 μg/ml) and IFN-γ. LPS (1 μg/ml) and IFN-γ (100 ng/ml) alone were taken as a positive control. After about 24 hours of incubation, IL-23 levels were estimated by ELISA in supernatants corresponding to non-cytotoxic concentrations at 10 to 5000 μg/ml and absorbance of samples was determined by using ELISA reader.

The subject of another experiment is IL-17 secretion. Briefly: IL-17 inhibition in ConA stimulated splenocytes (ELISA). In kind it is cell-based, C57BL/6 mice. The conditions noted are these: Mus musculus, Splenocyte, read-out: inhibition of IL-17 w.r.t. control (ConA) levels. On the procedure: The study was conducted to assess anti-inflammatory potential of test item IS217 in murine splenocytes isolated from C57BL/6 mice for assessing percentage inhibition of IL-17 in splenocytes by using ELISA method. […] Curcumin was taken as positive control for in-house validation.
For determining inhibitory activity against IL-17 secretion level, splenocytes cells were treated with the concentration range of 10 to 5000 μg/ml along with Con A stimulation (5 μg/ml), Con A alone treated cells were used as a positive control. After incubating for about 24 hours, IL-17 levels were estimated by ELISA corresponding to non-cytotoxic concentrations at 10 to 2000 μg/ml and absorbance of samples was determined by using ELISA reader.

Experiment [1] has as its system VEGF secretion. Kind of experiment: cells. Conditions: Homo sapiens, HaCaT, read-out: inhibition of VEGF.
Experiment [2] concerns TPA induced ear inflammation model in C57BL/6 mice. Briefly: IS217 alone and in combination with methotrexate and betamethasone in TPA induced ear inflammation model. It counts as in vivo. On the procedure:
The experimental procedure, doses and route of administration were same as IMQ model. Test item IS217 was administered subcutaneously either alone or in combination with standard methotrexate (MTX) and betamethasone (BD) to diseased animals.

Experiment [3] relates to human keratinocytes (HaCaT) cells. Briefly: Cytotoxicity of methotrexate in combination with IS217, combination index method (MTT). In kind it is cell-based. Conditions: methotrexate alone 0.01-5 μM, 72 h. As for the experimental part:
Assessment of cytotoxicity of methotrexate in combination with IS217 on proliferation of human keratinocytes (HaCaT) cells was performed by using combination index method. HaCaT cell line is maintained by using DMEM, 10% FBS, CO2 incubator and after overnight incubation cells were replenished by using about 1% FBS and then the cells were treated with different concentrations (0.01, 0.1, 0.25, 0.5, 1, 5 μM) of methotrexate alone, IS217 (10, 50, 500, 1000, 2000, 5000 μg/ml) alone, combination of methotrexate (0.01, 0.1, 0.25, 0.5, 1, 5 μM) and IS217 (10, 50, 500, 1000, 2000, 5000 μg/ml) to achieve different combinations.
IS217 was added to the above combinations every 24 hours (i.e., three doses) whereas methotrexate was added only once in 72 hours during the 72 hours of incubation. Then the plates were subjected for MTT assay and percentage inhibition (cytotoxicity) corresponding to each treatment was calculated.

A further experiment concerns HUVEC cells. Kind of experiment: Tube formation assay in HUVEC cells (VEGF induced). In kind it is cell-based, human. More on the design: Tube formation assay results, Avg: scale not given here. As for the experimental part:
HUVEC cells were used as test system to determine angiogenic effect of IS217 by assessing the inhibitory effects of test item on endothelial cells tube formation. Prior to the tube formation assay, test item of concentration ranging 0.01 μg/ml to 1000 μg/ml were used to treat endothelial cells for its cytotoxicity effect to assess suitable concentration for tube formation assay. […] The cells corresponding to positive control group were treated with bevacizumab of concentration 1000 μg/ml. The degree of angiogenesis progression was assessed based on visual pattern recognition of photomicrographs of HUVEC cells.

Experiment [4] concerns VEGF secretion. Kind of experiment: Inhibition of VEGF secretion in HUVEC cells. In kind it is cell-based, human. The conditions noted are these: 1 mg/ml. On the procedure:
The study was conducted to evaluate anti-angiogenic effect of IS217 in HUVEC cells. […] Bevacizumab (1 mg/mL) was taken as positive control for validation purpose.

With `O=C1c2c(O)cccc2Cc2cccc(O)c21` [Anthralin, reference compound], in the experiment with HaCaT cells (1 μM), the “% increase in TUNEL-Positive cell population w.r.t. control (untreated cells)” value (from here on “% increase”) was −87.0%.

For the compound `C=C(C)[C@@H]1CC[C@]2(C(=O)O)CC[C@]3(C)[C@H](CC[C@@H]4[C@@]5(C)CC[C@H](O)C(C)(C)[C@@H]5CC[C@]43C)[C@@H]12` [BA, betullininc acid, reference compound], the “% increase” value is given as 21.3% in the experiment on HaCaT cells (10 μg/ml), 48.2% in the experiment on HaCaT cells (20 μg/ml) and 61.6% with HaCaT cells (50 μg/ml).

As to `COc1cc(/C=C/C(=O)CC(=O)/C=C/c2ccc(O)c(OC)c2)ccc1O` [Curcumin], the inhibition at 10 µM amounted to 91.6% with IL-23 secretion (Homo sapiens, THP-1, curcumin 10 μM, read-out: inhibition of IL-23 w.r.t. control LPS and IFN-γ levels); 42.5% in the experiment with IL-17 secretion (curcumin 10 μM). Moreover, in the experiment on IL-23 secretion (curcumin, second concentration not given), the “inhibition of IL-23 w.r.t. control LPS and IFN-γ levels” value was 90.6%. Also, the “% increase” value in the experiment with HaCaT cells (10 μM) is listed as −72.2%; in the experiment on HaCaT cells (20 μM), −76.1%. Moreover, the inhibition at 1 µM with IL-17 secretion (curcumin 1 μM) stood at 40.5%; in the experiment with VEGF secretion [1], 22.8%.

For the compound `CN(Cc1cnc2nc(N)nc(N)c2n1)c1ccc(C(=O)N[C@@H](CCC(=O)O)C(=O)O)cc1` [methotrexate, reference compound], the “inhibitory activity against TPA induced increase in ear thickness” value in experiment [2] (MTX 0.75 mg/kg) came out at 24.95%; in experiment [2] (MTX 1.5 mg/kg) it was 46.06%. Also, the “50% inhibition of cell proliferation (IC50)” value in experiment [3] was “not achieved”.

Turning to `CC1=C(/C=C/C(C)=C/C=C/C(C)=C/C(=O)O)C(C)(C)CCC1` [retinoic acid], the inhibition at 1 µM in the experiment with VEGF secretion [1] turned out to be 22.8%.

Regarding “Bevacizumab: positive control, commercial formulation Avastin®, anti-VEGF”, the “Tube formation assay results, Avg” value is given as 0.44 in the experiment with HUVEC cells (Bevacizumab + VEGF) and 0.33 in the experiment with HUVEC cells (Bevacizumab, without VEGF). Also, the “inhibition of tube formation as compared to VEGF stimulation control” value in the experiment with HUVEC cells (HUVEC, bevacizumab 1000 μg/ml) was 91.1%. In addition, in the experiment on VEGF secretion [4], the “inhibition of VEGF” value turned out to be 94.51%.
